Data set [1] in a line: Cell proliferation assay, rapidly growing Daudi cells. The note with it: human; for IC50 at 72 h: rapidly growing Daudi cells, read-out: Cytotoxicity (IC50), Daudi Cells. The class given is cell-based. On the procedure: (§1) The toxicity of Compounds 14-1 and 14-2 was also measured in rapidly growing human foreskin fibroblast (HFF) cells and Daudi cells by cell proliferation assay (National Institute of Allergy and Infectious Diseases (NIAID), NIH, Bethesda, Md.). According to the assay method, the appropriate cells were seeded in six-well plates in MEM containing 10% FBS. Twenty four hours later, the cells were treated with several dilutions of the test compounds covering a range of 0.03-100 μg/ml. The plates were incubated in a CO2 incubator at 37° C. for 72h. The cells were washed after removing the media and subsequently released from the plate wells by the addition of 1 ml of 0.25% trypsin. The contents in the wells were mixed, diluted with Isotone III and counted using a Coulter counter. The CC50 values (concentration of compound giving 50% inhibition of cell proliferation) were calculated by linear regression analysis. Toxicity of Compound 14-1 was also evaluated in bone marrow precursor cells by previously published procedure (Sommadossi, J.-P., et al., Biochem. Pharmacol., 44:1921-1925, 1992).
(§2) (A) Cell Proliferation Assay: Twenty-four hours prior to assay, cells (HFF or Daudi) were seeded in six-well plates at a concentration of 2.5×10^4 cells per well in MEM containing 10% FBS. On the day of the assay, drugs were diluted serially in MEM containing 10% FBS at increments of 1:5 covering a range from […]. For drugs that had to be solubilized in DMSO, control wells receive MEM containing 10% DMSO. The media from the wells was then aspirated, and 2 mL of each drug concentration was added to each well. The cells were incubated in a CO2 incubator at 37° C. for 72 h. At the end of this time, the media-drug solution was removed, and the cells were washed. Trypsin-EDTA (0.25%, 1 mL) was added to each well and incubated until the cells started to come off the plate. The cell-media mixture was then pipeted up and down vigorously to break up the cell suspension and 0.2 mL of the mixture added to 9.8 mL of Isoton III and the cells were counted using a Coulter Counter. Each sample was counted three times with two replicate wells per sample. The IC50 values were calculated using a computer program.

The subject of the next data set is P3HR-1 strain of EBV. As to the kind of experiment: Viral capsid antigen (VCA) / EBV immunofluorescence assay in Daudi cells. The data set is classed as cell-based, Epstein-Barr virus. The note with it: for SI (Selectivity Index), Daudi Cells: IC50 (Daudi cells) divided by anti-EBV EC50; for SI (Selectivity Index), Neutral Red Uptake: IC50 (neutral red, stationary HFF) divided by anti-EBV EC50; for SI (Selectivity Index), HFF Cells: IC50 (rapidly growing HFF) divided by anti-EBV EC50; for EC50: human gammaherpesvirus 4, Daudi cells, read-out: Antiviral Activity (EC50), anti-EBV. On the procedure:
After virus adsorption, the cells were washed and pelleted, and the supernatant was discarded. The drugs to be tested were serially diluted in RPMI-1640 and added to the appropriate tubes. The cultures were incubated for 2 days in complete medium to allow viral gene expression. Following the 48 h incubation period, a number of cells of each sample were counted and washed in phosphate-buffered saline (PBS), and slides were prepared. The slides were dried overnight. The dried cells were fixed with acetone. A monoclonal antibody to viral capsid antigen (VCA) was then added to the cells, incubated for 30 min at 37° C., and washed in PBS. This was followed by a fluorescein-conjugated goat anti-mouse IgG antibody. The cells were counterstained with. Evans Blue. A total of 500 negative and fluorescence positive cells were counted. The total number of VCA positive cells in the cultures was calculated and EC50 values determined using Microsoft Excel Software.
(§3) Data Analysis: Dose-response relationships were constructed by linearly regressing the percent inhibition of parameters derived in the preceding sections against log drug concentrations. Fifty-percent inhibitory (IC50) concentrations were calculated from the regression lines.

Data set [2] can be described thus: Cell proliferation assay, rapidly growing HFF cells. The note with it: human, rapidly growing human foreskin fibroblast (HFF) cells; for IC50 at 72 h: rapidly growing HFF cells, read-out: Cytotoxicity (IC50), HFF Cells. The data set is classed as cell-based. The method, then:
as §1, §2

A short description of data set [3]: Neutral red uptake assay, stationary HFF cells. The class given is cell-based. Conditions: human, read-out: Cytotoxicity (IC50), Neutral Red Uptake. On the procedure: (B) Neutral Red Uptake Assay: Twenty-four hours prior to assay, HFF cells were plated into 96-well plates at a concentration of 2.5×10^4 cells/well. After 24 h, the media was aspirated, and […] of media containing drug was added to the first row of wells and then diluted serially 1:5 using the automated Cetus Liquid Handling System. The plates were then incubated in a Co2 incubator at 37° C. for 7 days. At this time the media/drug was removed, cells were washed, 200 μL/well of 0.01% neutral red in PBS was added, and the mixture was incubated for 1 h. The dye was removed, and the cells were washed using a Nunc Plate Washer. After the wash was removed, […] of 50% ethanol/1% aqueous acetic acid was added. The plates were placed on a rotating shaker for 15 min, and the optical densities were then read at 540 nm using a plate reader.
as §3

The target of data set [4] is T1, bacteriophage T7 RNA polymerase (Escherichia phage T7, UniProt P00573).
T1 construct: purchased Promega P2075
As to the kind of experiment: Transcription catalyzed by T7 RNA polymerase. The class given is biochemical. The method, then:
To show whether the “fat” nucleotide Compound 15-2 (FNTP) is incorporated into RNA during transcription, experiments were performed using bacteriophage T7 RNA polymerase (RNAP) and a synthetic 42-mer DNA template shown below that is annealed to a 17-nucleotide promoter specific for T7 RNAP. This promoter-template enables the synthesis of 25-mer RNA, and the purine analogue may be incorporated in positions +1, +11, +13, +15, +21, +22, and +23.
Transcription reaction conditions were optimized with the use of ^32P CTP for labeling RNA transcripts. Polyacrylimide gel electrophoresis of the transcription products obtained from the 42-mer template, using 1 mM each of four natural NTPs, reveled a 25-mer RNA as the major product, together with shorter and longer labeled transcripts (FIG. 9, lane 1). The additional bands observed are consistent with the known ability of T7 RNA polymerase to add non-coded residues at the 3′-end of transcripts. (Milligan, J. F., et al., Nuc. Acids Res., 15, 8783-8798, 1987) With the use of 1 mM nucleotide Compound 15-2 (FNTP), the yield of transcription was reduced (lane 2).
With the use of a synthetic 37-mer DNA template, annealed to a 17-nucleotide promoter for T7 RNAP as shown below, a 20 nucleotide-long transcript RNA was obtained when the reaction mixture contained all four NTPs in appropriate concentrations, along with many shorter “abortive” fragments. (Milligan, J. F., et al., Nuc. Acids Res., 15, 8783-8798, 1987). For the reaction with modified nucleotide, typically
the concentration of the appropriate natural nucleotide was reduced. […] (Milligan, J. F., et al., Methods in Enzymol., 180, 51-63, 1989.) In the present experiments, the synthesis of RNA was compared under standard conditions (using 4 NTPs in 0.2 mM concentration each) with the synthesis of RNA by using an additional “fat” nucleoside triphosphate Compound 15-2 (FNTP) in varying (0.05-10 mM) concentrations. The reaction mixtures were incubated at 37° C. for 2 hours, and the products were denatured in a buffer containing urea. The products were separated by 20% polyacrylamide-urea gel electrophoresis and visualized by autoradiography.
Transcription samples (total volume 10 μL contained: 40 mM Tris-HCl pH 8.1 with 6 mM MgCl2, 5 mM dithiothreitol (DTT), 1 mM spermidine, 0.01% Triton-X 100, 50 μg/mL bovine serum albumin, 250 nM synthetic DNA template with a promotor for T7 RNAP, 4 units of T7 RNA polymerase, and 0.2 mM ribonucleoside triphosphates. A single α^32P-labeled NTP was added for labeling (typicallly 1 μL of 10 mCi/mL ). Inhibition assays were monitored with varying concentrations (0.05-10 mM) of nucleotide Compound 15-2. Polyacrylamide gel (20%) electrophoresis was performed on slab gels (18 cm×16 cm, or 35 cm×44 cm) containing 8M urea. […]

The target in data set [5] is T2, adenosine deaminase from calf intestinal mucosa (Bos taurus, UniProt P56658).
T2 construct: against adenosine deaminase from calf intestinal mucosa; from tissue; host or cells: calf intestinal mucosa
As to the kind of experiment: Adenosine deaminase assay (Example 17). The data set is classed as biochemical. The note with it: Lineweaver-Burk plots; with and without preincubation. On the procedure:
Inhibition of adenosine deaminase (ADA) by Compound 17-1 and Compound 17-2 (see FIG. 13 for chemical structures; note that structure 1 FIG. 13 is the same as that in figure except that it is written in an anti-conformation in the former) was investigated in vitro against adenosine deaminase from calf intestinal mucosa in a 50 mM phosphate buffer (pH=7.4) at 25° C., by spectro-photometrically monitoring the rate of hydrolysis of substrate adenosine at 265 nm. Stock solutions of the substrate, enzyme, and inhibitors were prepared using a 50 mM phosphate buffer (pH 7.4). The enzyme kinetics was followed by measuring the change in optical density (decrease in absorbance) per minute of the substrate adenosine. By keeping the concentration of the inhibitor constant, and by varying the substrate concentration, a set of kinetic data was obtained. Additional sets of data were generated using different concentrations of the inhibitor. […]
(a) pre-incubation of the enzyme with the inhibitor; here the enzyme (ADA 10 μL) and inhibitor were preincubated for 10 min in a calculated amount of phosphate buffer (50 mM, pH 7.5 ) at 25° C. and the reaction was initiated by the addition of substrate, adenosine, and (b) without preincubation; here the reaction was started by addition of ADA (10 μL) to a mixture of adenosine and inhibitor in the phosphate buffer at 25° C. […]

Data set [6] addresses T3, guanine deaminase (guanase) from rabbit liver (Oryctolagus cuniculus, UniProt G1T386).
T3 construct: from tissue; host or cells: rabbit liver
Description: Guanine deaminase assay (Example 17). The class given is biochemical. Conditions: Lineweaver-Burk plots. The method, then:
Stock solutions of the substrate, enzyme, and inhibitors were prepared using a 50 mM Tris-HCl buffer (pH 7.4). The enzyme kinetics was followed by measuring the change in optical density (decrease in absorbance) per minute of the substrate guanine. By keeping the concentration of the inhibitor constant, and by varying the substrate concentration, a set of kinetic data was obtained. Additional sets of data were generated using different concentrations of the inhibitor. The substrate concentration in each assay ranged 6-20 μM; a total of six different concentrations were employed. The inhibitor concentration used in each assay was 30 or 40 μM. The amount of enzyme used in each assay was 0.0076 unit. The Ki for inhibition assays was computed from Lineweaver-Burk plots. The Lineweaver-Burk plot (1/V vs 1/[S]), as well as the linear regression analysis of kinetic data, were performed using the program Quattro Pro (version 6.01) for Windows.™.

≈ marks a conversion by molar mass, not a printed value. Entries after “also recorded” stand apart in the source; their conditions may differ.

T1 sequence (P00573 whole entry): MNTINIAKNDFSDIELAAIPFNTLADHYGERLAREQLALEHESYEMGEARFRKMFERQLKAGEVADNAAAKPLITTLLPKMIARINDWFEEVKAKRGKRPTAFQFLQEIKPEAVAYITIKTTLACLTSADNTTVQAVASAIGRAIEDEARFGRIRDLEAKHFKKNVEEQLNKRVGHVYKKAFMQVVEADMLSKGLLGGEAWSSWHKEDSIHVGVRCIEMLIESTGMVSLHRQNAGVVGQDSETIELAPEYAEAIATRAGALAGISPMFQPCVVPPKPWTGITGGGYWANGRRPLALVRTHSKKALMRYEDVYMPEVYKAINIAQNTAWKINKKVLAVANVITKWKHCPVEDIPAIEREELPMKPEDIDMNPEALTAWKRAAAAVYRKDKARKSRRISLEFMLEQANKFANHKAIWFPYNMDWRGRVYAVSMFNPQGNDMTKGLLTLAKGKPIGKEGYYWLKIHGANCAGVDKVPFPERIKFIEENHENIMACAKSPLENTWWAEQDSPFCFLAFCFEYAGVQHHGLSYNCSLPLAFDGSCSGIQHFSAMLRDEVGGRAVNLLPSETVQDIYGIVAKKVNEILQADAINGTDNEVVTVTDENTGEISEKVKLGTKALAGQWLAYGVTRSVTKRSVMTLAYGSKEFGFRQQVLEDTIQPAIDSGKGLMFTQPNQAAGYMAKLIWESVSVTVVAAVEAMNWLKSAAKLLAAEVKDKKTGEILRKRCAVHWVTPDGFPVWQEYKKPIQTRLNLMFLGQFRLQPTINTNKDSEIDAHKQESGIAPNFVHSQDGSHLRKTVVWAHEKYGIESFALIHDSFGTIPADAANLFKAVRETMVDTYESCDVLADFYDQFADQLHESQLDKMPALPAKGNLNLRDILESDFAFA
T2 sequence (P56658 whole entry): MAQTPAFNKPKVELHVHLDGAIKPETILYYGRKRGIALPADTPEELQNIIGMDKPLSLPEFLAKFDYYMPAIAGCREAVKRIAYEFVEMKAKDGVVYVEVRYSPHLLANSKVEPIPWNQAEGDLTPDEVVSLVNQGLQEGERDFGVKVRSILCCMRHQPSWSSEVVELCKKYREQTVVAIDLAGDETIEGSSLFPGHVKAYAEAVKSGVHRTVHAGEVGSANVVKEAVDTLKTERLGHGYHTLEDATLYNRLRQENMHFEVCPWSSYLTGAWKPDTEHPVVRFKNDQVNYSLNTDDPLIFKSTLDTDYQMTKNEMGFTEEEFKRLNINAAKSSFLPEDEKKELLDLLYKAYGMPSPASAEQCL
T3 sequence (G1T386 1-454): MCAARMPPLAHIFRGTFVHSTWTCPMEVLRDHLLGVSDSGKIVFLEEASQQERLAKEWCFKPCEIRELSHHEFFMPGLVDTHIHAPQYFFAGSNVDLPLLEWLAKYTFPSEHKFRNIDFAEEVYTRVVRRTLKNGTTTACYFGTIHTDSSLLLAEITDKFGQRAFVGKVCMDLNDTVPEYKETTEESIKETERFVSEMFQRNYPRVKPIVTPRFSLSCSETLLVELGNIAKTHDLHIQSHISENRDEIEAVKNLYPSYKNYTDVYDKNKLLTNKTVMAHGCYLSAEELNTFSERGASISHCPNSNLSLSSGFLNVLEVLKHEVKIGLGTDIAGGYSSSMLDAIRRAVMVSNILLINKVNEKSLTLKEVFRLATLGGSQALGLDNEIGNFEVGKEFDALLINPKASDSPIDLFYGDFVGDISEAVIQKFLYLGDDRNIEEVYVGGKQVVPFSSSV

What is called CC50 is the concentration at which the toxic effect on the cells reaches its halfway point. High values mean lower toxicity to the cells, low ones greater toxicity to the cells. Usually IC50 stands for the concentration that gives 50% inhibition. By EC50 is commonly meant the concentration giving half of the maximal effect. In the case of `Nc1nc2c(ncn2COCCO)c(=O)[nH]1` [Aciclovir, reference compound], the CC50 at 72 h in data set [1] (Rapidly growing Daudi cells) was > 50 µg/mL. For the same molecule, in data set [1], the IC50 at 72 h is > 50 µg/mL. In the data set on P3HR-1 strain of EBV, the “SI (Selectivity Index), Daudi Cells” value was >62; the “SI (Selectivity Index), Neutral Red Uptake” value was >125; the “SI (Selectivity Index), HFF Cells” value is on record as >125; the EC50 was 0.8 µg/mL (≈ 3.55 µM). In addition, in data set [2] (Rapidly growing HFF cells), the CC50 at 72 h was > 100 µg/mL. For the same molecule, the IC50 at 72 h in data set [2] is > 100 µg/mL. Moreover, the IC50 at 7 days in data set [3] is > 100 µg/mL.
Consider `N=c1nc(N)nc(N)c2ncn([C@@H]3O[C@H](COP(=O)(O)OP(=O)(O)OP(=O)(O)O)[C@@H](O)[C@H]3O)c12` [Compound 15-2, 5′-triphosphate derivative of 4,6-diamino-8-imino-8H-1-β-D-ribofuranosylimidazo[4,5-e][1,3]diazepine], for which the “incorporation into RNA during transcription (substrate for T7 polymerase)” value in data set [4] (42-mer DNA template) was “not a substrate for T7 polymerase”. Further, the “inhibition of T7 RNA polymerase-catalyzed transcription” value in data set [4] (42-mer and 37-mer DNA templates, 0.05-10 mM) is listed as “inhibitor of T7 polymerase”.
`N=c1nc(N)c2ncn(COCCO)c2c(N)n1` [Compound 17-2]: the “mode of inhibition of adenosine deaminase” value in data set [5] is “competitive inhibitor; also recorded: reversible inhibitor”. Besides, the “inhibition of guanine deaminase (guanase), mode” value in data set [6] is “competitive inhibitor”.
By melting point is commonly meant the temperature of the solid-liquid transition. `O=C1c2ncn(Cc3ccccc3)c2N(Cc2ccccc2)C(=O)CN1Cc1ccccc1` [Compound 18-1, 3,4,7-Tribenzyl-4,5,7,8-tetrahydro-6H-imidazo[4,5-e][1,4]diazepine-5,8-dione] returned a melting point of 170 to 172 °C. In data set [1], the IC50 at 72 h was > 50 µg/mL. In the data set with P3HR-1 strain of EBV, the “SI (Selectivity Index), Daudi Cells” value was >12; the “SI (Selectivity Index), Neutral Red Uptake” value is recorded as >24; the “SI (Selectivity Index), HFF Cells” value is given as >24; the EC50 worked out at 4.1 µg/mL (≈ 9.39 µM). In addition, in data set [2], the IC50 at 72 h is > 100 µg/mL. Besides, the IC50 at 7 days in data set [3] is > 100 µg/mL.
Take `O=C1NCC(=O)N(Cc2ccccc2)c2c1nc(Br)n2Cc1ccccc1` [Compound 18-2, 3,4-Dibenzyl-2-bromo-4,5,7,8-tetrahydro-6H-imidazo[4,5-e][1,4]diazepine-5,8-dione]: the melting point lay in the range of 239 to 241 °C. In addition, in data set [1], the IC50 at 72 h is > 50 µg/mL. In addition, in the data set with P3HR-1 strain of EBV, the “SI (Selectivity Index), Daudi Cells” value is reported as >6; the “SI (Selectivity Index), Neutral Red Uptake” value was >12; the “SI (Selectivity Index), HFF Cells” value was >12; the EC50 amounted to 8.3 µg/mL (≈ 19.5 µM). The IC50 at 72 h in data set [2] is > 100 µg/mL. Also, in data set [3], the IC50 at 7 days is > 100 µg/mL.

The values are drawn from patent US6677310B1, “Ring-expanded nucleosides and nucleotides” (Nabi, priority 1999, dated 2004).
